In paper PMC4079550 (Theriogenology, 2014):

How the values were obtained:
male C57/Bl6 mice [1] = test: Systemic toxicity: complete blood counts and routine chemistries; assay type: in vivo, mouse; details: melphalan alone 7.5 mg/kg ip once, data not shown
murine testicular cells = test: Microscopic appearance of testicular cell cultures; assay type: cell-based, Sprague–Dawley rat; details: 20 μM, over 72 hours, Figure 2
male C57/Bl6 mice [2] = test: Effect on spermatogenesis in vivo; parameters: species or system mouse
male C57/Bl6 mice [3] = test: Testicular histology after treatment in vivo; parameters: species or system mouse; details: single dose, Bouin's fixative, Hematoxylin-Periodic acid Schiff's stain, Figure 3
Sertoli cells = test: Anti-Mullerian hormone; assay type: cell-based, Sprague–Dawley rat; details: 20 uM, after 24 and 48 hours of incubation; bright staining in control cultures
mouse fibroblasts = test: LDH release cytotoxicity experiment using mouse fibroblasts; assay type: cell-based; details: at 72 hours, P<0.01 between the two
mice = details: ref [24]; cited from earlier work
[4] = melphalan 7.5 mg/kg ip once on day 0, Week 4, n = 3 mice
[5] = melphalan 7.5 mg/kg ip once on day 0, Week 12, n = 3 mice

With N[C@@H](Cc1ccc(N(CCCl)CCCl)cc1)C(=O)O [Melphalan] the “Lymphocytes count at 4 weeks” value (male C57/Bl6 mice [1]; 4 weeks) was “slight, non-significant reduction”, the “Lymphocyte count at 12 weeks” value (male C57/Bl6 mice [1]; 12 weeks) was “normal” and the “Microscopic appearance of cultures compared to control cultures” value (murine testicular cells) was “marked cell death”. The “Daily Sperm Production/testis” value (male C57/Bl6 mice [2]; [4]) was 0.515±0.013 ×10^6, the Spermatids/Testis (male C57/Bl6 mice [2]; [4]) was 2.5±0.06 ×10^6 and the “Spermatids/mg of Tissue” value (male C57/Bl6 mice [2]; [4]) was 0.054±0.003 ×10^6. For the same compound, the “Daily Sperm Production/testis” value (male C57/Bl6 mice [2]; [5]) was 1.9±0.12 ×10^6, the Spermatids/Testis (male C57/Bl6 mice [2]; [5]) was 9.2±0.57 ×10^6 and the “Spermatids/mg of Tissue” value (male C57/Bl6 mice [2]; [5]) was 0.106±0.10 ×10^6. The “Testis histology at four weeks” value (male C57/Bl6 mice [3]) was “Marked loss of spermatocytes and spermatids”, the “Staining for AMH (marker of Sertoli cells)” value (Sertoli cells) was “very little” and the LDH release (mouse fibroblasts) was 20 % of maximal LDH release.

In the case of NNC(=O)c1nn(Cc2ccc(Cl)cc2Cl)c2ccccc12 [adjudin], the “Increase of contraceptive efficacy by conjugation to FSHβ” value (mice) is listed as 10,000 fold.
